EC50 and Activity data for 24 molecules are collected here from ChEMBL document CHEMBL3872283, “Design, Synthesis, and Evaluation of Novel and Selective G-protein Coupled Receptor 120 (GPR120) Spirocyclic Agonists” (ACS Med Chem Lett, 2017).

The source made the active and inactive calls. The calls are words filed in the database; no cut-off is given here.

Series [1] deals with T1, Free fatty acid receptor 4 (Homo sapiens, UniProt Q5NUL3).
T1 sequence (Q5NUL3 whole entry): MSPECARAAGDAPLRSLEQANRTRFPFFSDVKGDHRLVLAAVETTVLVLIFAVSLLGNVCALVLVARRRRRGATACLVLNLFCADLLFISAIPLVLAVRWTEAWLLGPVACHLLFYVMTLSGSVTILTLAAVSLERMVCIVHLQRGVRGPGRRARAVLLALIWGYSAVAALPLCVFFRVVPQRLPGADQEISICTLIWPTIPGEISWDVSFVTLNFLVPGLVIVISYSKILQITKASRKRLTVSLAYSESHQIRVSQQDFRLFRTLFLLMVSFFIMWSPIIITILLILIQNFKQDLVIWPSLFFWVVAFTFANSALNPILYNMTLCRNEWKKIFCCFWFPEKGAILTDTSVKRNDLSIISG
Briefly: Agonist activity at human GPR120 short isoform expressed in CHOK1 cells assessed as induction of IP1 accumulation after 60 mins by HTRF assay. The format is functional, cell-based, CHO-K1. For orientation: Time-resolved FRET reads energy transfer from a long-lived donor to a nearby acceptor.

Series [2] has as its target T1, Free fatty acid receptor 4. Briefly: Agonist activity at ARMS2-PK2 -tagged human GPR120 short isoform expressed in CHOK1 cells assessed as induction of beta-arrestin2 recruitment after 90 mins by luminescence assay. It is filed as cell-based, CHO-K1. In general terms: Recruitment of arrestin is a read-out of receptor activation apart from second messengers.
Series [3] addresses T2, Free fatty acid receptor 4 (Mus musculus, UniProt Q7TMA4).
T2 sequence (Q7TMA4 whole entry): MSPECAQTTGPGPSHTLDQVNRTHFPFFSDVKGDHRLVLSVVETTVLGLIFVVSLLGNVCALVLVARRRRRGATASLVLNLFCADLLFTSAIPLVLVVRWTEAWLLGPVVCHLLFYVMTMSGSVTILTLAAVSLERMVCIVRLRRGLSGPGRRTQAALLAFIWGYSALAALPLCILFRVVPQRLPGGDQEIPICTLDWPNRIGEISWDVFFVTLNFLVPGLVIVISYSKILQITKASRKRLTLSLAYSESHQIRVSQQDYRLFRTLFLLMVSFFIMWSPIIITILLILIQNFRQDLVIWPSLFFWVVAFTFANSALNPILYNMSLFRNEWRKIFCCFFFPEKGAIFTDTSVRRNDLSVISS
Nature of the series: Agonist activity at mouse GPR120 expressed in U2OS cells assessed as induction of beta-arrestin2 recruitment after 90 mins by luminescence assay. It is filed as cell-based.

Series [4] concerns the target T3, Free fatty acid receptor 1 (Homo sapiens, UniProt O14842). Briefly: Agonist activity at human GPR40 expressed in HEK293 cells assessed as induction of IP1 accumulation after 60 mins by HTRF assay. The format is functional, cell-based.
Series [5] has as its target T2, Free fatty acid receptor 4. Nature of the series: Agonist activity at mouse GPR120 expressed in CHOK1 cells assessed as induction of IP1 accumulation after 60 mins by HTRF assay. It is filed as functional, cell-based, CHO-K1.
In series [6] the target is T2, Free fatty acid receptor 4. Nature of the series: Agonist activity at mouse GPR120 assessed as induction of beta-arrestin recruitment.
In series [7] the target is T2, Free fatty acid receptor 4. Nature of the series: Agonist activity at mouse GPR120 assessed as induction of IP1 accumulation. It is filed as functional.
The target in series [8] is T1, Free fatty acid receptor 4. Nature of the series: Agonist activity at human GPR120 assessed as induction of beta-arrestin recruitment.
Series [9] addresses T3, Free fatty acid receptor 1. Nature of the series: Agonist activity at human GPR40 assessed as induction of IP1 accumulation. It is filed as functional.
For series [10], the target named is T1, Free fatty acid receptor 4. Briefly: Agonist activity at human GPR120 assessed as induction of IP1 accumulation. It is filed as functional.
Series [11] relates to Mus musculus. Nature of the series: Decrease in insulin levels in diet-induced obese mouse at 10 mg/kg, po qd administered daily via gavage for 14 days measured on day 14 post dose. It is filed as functional, organism-based.
Series [12] relates to Mus musculus. Briefly: Antidiabetic activity in diet-induced obese mouse assessed as insulin sensitivity by measuring reduction in glucose at 10 mg/kg, po qd administered daily via gavage for 14 days measured on day 14 post dose. The format is functional, organism-based.
In series [13] the test system is Mus musculus. Briefly: Decrease in insulin levels in diet-induced obese mouse at 10 mg/kg, po qd administered daily via gavage for 28 days measured on day 28 post dose. The format is functional, organism-based.
In series [14] the test system is Mus musculus. Briefly: Antidiabetic activity in diet-induced obese mouse assessed as increase in glucose infusion rate during hyperinsulinemic euglycemic clamp procedure at 10 mg/kg, po qd administered daily via gavage measured after 28 days. It is filed as functional, organism-based.
The test system of series [15] is Mus musculus. Nature of the series: Antidiabetic activity in diet-induced obese mouse assessed as insulin sensitivity by measuring reduction in glucose at 10 mg/kg, po qd administered daily via gavage for 28 days measured on day 28 post dose. The format is functional, organism-based.
In series [16] the test system is Mus musculus. Nature of the series: Toxicity in diet-induced obese mouse assessed as change in body weight at 10 mg/kg, po qd administered daily via gavage for 28 days. It is filed as organism-based. The following applies: in vivo, 672 h.

T3 sequence (O14842 whole entry): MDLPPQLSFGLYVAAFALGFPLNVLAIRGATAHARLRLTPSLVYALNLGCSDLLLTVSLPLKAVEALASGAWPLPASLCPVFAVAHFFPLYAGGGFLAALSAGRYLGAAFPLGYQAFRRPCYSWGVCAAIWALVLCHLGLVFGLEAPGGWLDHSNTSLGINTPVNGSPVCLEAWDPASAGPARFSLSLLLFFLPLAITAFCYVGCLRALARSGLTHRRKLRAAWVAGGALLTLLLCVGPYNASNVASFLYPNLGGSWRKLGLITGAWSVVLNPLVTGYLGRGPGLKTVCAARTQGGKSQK

A word on the EC50: it is the concentration at which the effect is half-maximal. On to `CC1CC(CC(=O)O)CCC12CCN(c1cc(OC(F)(F)F)ccc1Cl)CC2` (stereo unspecified), for which the results for the EC50 in [1] and in series [2] were 440 nM and 580 nM, respectively.

As to `COc1ccc(Cl)c(N2CCC3(CCC(CC(=O)O)CC3)CC2)c1`, the EC50 in series [3] is 5300 nM; in [1], 2100 nM; in series [2], 2500 nM; in [4], more than 10000 nM; in series [5] it was 570 nM.

With `O=C(O)CC1CCC2(CC1)CCN(c1cc(C(F)(F)F)ccc1F)CC2`, the EC50 was 3000 nM in [3]; 1200 nM in [1]; 2200 nM in series [2]; more than 10000 nM in [4]; 590 nM in series [5].

With `O=C(O)CN1CCC2(CC1)CCN(c1cc(OC(F)(F)F)ccc1F)CC2`, the EC50 in series [1] and in series [2] was more than 10000 nM in each case.

For the molecule `O=C(O)C1CCN(c2ccc(-c3cc(OC(F)(F)F)ccc3F)cc2)CC1`, the EC50 was 320 nM in [6]; 89 nM in series [7]; 1600 nM in series [8]; more than 10000 nM in series [9]; 300 nM in series [10].

Consider `O=C(O)CC1CCC2(CC1)CCN(c1cc(C(F)(F)F)ccn1)CC2`, for which the EC50 in series [3] is 4200 nM; in series [1] it was 3100 nM; in series [2], 9200 nM; in [4] it was more than 10000 nM; in series [5] it was 1300 nM.

Regarding `N#Cc1ccc(OC(F)(F)F)cc1N1CCC2(CCC(CC(=O)O)CC2)CC1`, the 50% effective concentration (EC50) is 290 nM in [3]; 200 nM in series [1]; 370 nM in series [2]; 2500 nM in series [4]; 66 nM in [5].

As to `O=C(O)C1CC12CCC1(CCN(c3cc(OC(F)(F)F)ccc3Cl)CC1)CC2` (stereo unspecified), the concentration for a half-maximal effect (EC50) was found to be 2200 nM in [1] and 3900 nM in series [2].

`O=C(O)CC1CCC2(CC1)CCN(c1cc(OC(F)(F)F)ccc1F)CC2`: the EC50 in [3] is 470 nM; in series [1] it was 130 nM; in series [2], 700 nM; in series [4] it was more than 10000 nM; in series [5], 49 nM.

As to `N#Cc1cc(SC(F)(F)F)cc(N2CCC3(CCC(CC(=O)O)CC3)CC2)c1`, the EC50 is 140 nM in series [3]; 360 nM in [1]; 480 nM in series [2]; more than 10000 nM in series [4]; 44 nM in [5].

Regarding `O=C(O)c1ccc(C2CCN(c3cc(OC(F)(F)F)ccc3F)CC2)cc1`, the EC50 in series [6], in [7], in series [8], in [9] and in series [10] was more than 10000 nM throughout.

For the molecule `O=C(O)CC1CCC2(CC1)CCN(c1ccccc1Cl)CC2`, the EC50 in series [3], in [1], in series [2], in series [4] and in series [5] was more than 10000 nM throughout.

Consider `O=C(O)CCc1cc2cc(-c3cc(OC(F)(F)F)ccc3F)ccc2o1`, for which the EC50 in series [6] came out at 21 nM; in [8], 16 nM.

Take `OCCC1CCC2(CC1)CCN(c1cc(OC(F)(F)F)ccc1Cl)CC2`: the results for the EC50 in series [1] and in [2] were 4300 nM and 330 nM, respectively.

Take `O=C(O)CC1CCC2(CC1)CCN(c1cc(Cl)cc(Cl)c1)CC2`: the EC50 was 120 nM in series [3]; 220 nM in [1]; 190 nM in [2]; 6300 nM in series [4]; 51 nM in series [5].

Take `CC1CC2(CCC1CC(=O)O)CCN(c1cc(OC(F)(F)F)ccc1Cl)CC2` (stereo unspecified): the results for the EC50 in series [1] and in series [2] were 4100 nM and 2700 nM, respectively.

On to `O=C(O)CC1CCC2(CC1)CCN(c1cc(F)cc(Cl)c1F)CC2`, for which the half-maximal effective concentration (EC50) came to 1100 nM in series [3]; 420 nM in series [1]; 1400 nM in series [2]; 8100 nM in [4]; 190 nM in [5].

In the case of `CC(C(=O)O)C1CCC2(CC1)CCN(c1cc(OC(F)(F)F)ccc1Cl)CC2` (stereo unspecified), the EC50 in series [1] is 3500 nM; in series [2], 4400 nM.

With `O=C(O)CCC1CCC2(CC1)CCN(c1cc(OC(F)(F)F)ccc1Cl)CC2`, the concentration for a half-maximal effect (EC50) in series [1] came out at 2700 nM; in series [2], 1000 nM.

For the molecule `O=C(O)CC1CCC2(CCN(c3cc(OC(F)(F)F)ccc3Cl)CC2)OC1` (stereo unspecified), the EC50 in series [1] worked out at 5700 nM; in series [2], 2100 nM.

Regarding `Cc1cc(-c2cc(OC(F)(F)F)ccc2Cl)cc(C)c1OCCCC(=O)O`, the results for the EC50 in series [6], in [8] and in series [9] were 35 nM, 100 nM and more than 10000 nM, respectively.

In the case of `CCc1ccc(CCOc2ccc(CC3SC(=O)NC3=O)cc2)nc1` (stereo unspecified) [PIOGLITAZONE], the result in series [11], in series [12], in series [13], in series [14] and in [15] was Active. In [16], the Activity result was “Toxic”.

Regarding `O=C(O)C1CCC(C2CCN(c3cc(OC(F)(F)F)ccc3F)CC2)CC1` (stereo unspecified), the EC50 was 990 nM in series [6], 1490 nM in series [7], more than 10000 nM in series [9] and 700 nM in series [10].

Consider `CC1(C)Cc2cc(Cl)cc(N3CCC4(CCC(CC(=O)O)CC4)CC3)c2O1`, for which the EC50 in [3] was 4000 nM; in series [1] it was 3300 nM; in series [2] it was 3100 nM; in [4] it was more than 10000 nM; in series [5], 670 nM.
